Measured values taken from ChEMBL document CHEMBL1201862, “PubChem BioAssay data set” (2004).
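Assay format: 96-well plates, 48-hour exposure. GI50 is the concentration that inhibits growth by half.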 Active and inactive are the calls of the source. No stated cut-off is given here; in the data, active = GI50 up to about 1.1 µM and inactive = higher.

How the values were obtained:
Experiment in all cases: inhibition of tumour cell growth, NCI panel, 48 h
786-0 = test system: 786-0
A549 = test system: A549
ACHN = test system: ACHN
CAKI-1 = test system: CAKI-1
CCRF-CEM = test system: CCRF-CEM
COLO 205 = test system: COLO 205
DU-145 = test system: DU-145
EKVX = test system: EKVX
HCT-116 = test system: HCT-116
HCT-15 = test system: HCT-15
HL-60 = test system: HL-60
HOP-62 = test system: HOP-62
HOP-92 = test system: HOP-92
HT-29 = test system: HT-29
Hs-578T = test system: Hs-578T
IGROV-1 = test system: IGROV-1
K562 = test system: K562
KM12 = test system: KM12
LOX IMVI = test system: LOX IMVI
M14 = test system: M14
MCF7 = test system: MCF7
MDA-MB-231 = test system: MDA-MB-231
MDA-MB-435 = test system: MDA-MB-435
MDA-N = test system: MDA-N
MOLT-4 = test system: MOLT-4
Malme-3M = test system: Malme-3M
NCI-H226 = test system: NCI-H226
NCI-H23 = test system: NCI-H23
NCI-H460 = test system: NCI-H460
NCI-H522 = test system: NCI-H522
NCI/ADR-RES = test system: NCI/ADR-RES
OVCAR-3 = test system: OVCAR-3
OVCAR-4 = test system: OVCAR-4
OVCAR-5 = test system: OVCAR-5
OVCAR-8 = test system: OVCAR-8
PC-3 = test system: PC-3
RPMI-8226 = test system: RPMI-8226
RXF 393 = test system: RXF 393
SF-268 = test system: SF-268
SF-295 = test system: SF-295
SF-539 = test system: SF-539
SK-MEL-28 = test system: SK-MEL-28
SK-MEL-2 = test system: SK-MEL-2
SK-MEL-5 = test system: SK-MEL-5
SK-OV-3 = test system: SK-OV-3
SN12C = test system: SN12C
SNB-19 = test system: SNB-19
SNB-75 = test system: SNB-75
SR = test system: SR
SW-620 = test system: SW-620
T47D = test system: T47D
TK-10 = test system: TK-10
U-251 = test system: U-251
UACC-257 = test system: UACC-257
UACC-62 = test system: UACC-62
UO-31 = test system: UO-31

## Cc1cc(=O)oc2c(CNC(CO)C(=O)O)c(O)ccc12 (stereo unspecified)
786-0
  GI50: > 100 µM (inactive)
A549
  GI50: > 100 µM (inactive)
ACHN
  GI50: > 100 µM (inactive)
CAKI-1
  GI50: > 100 µM (inactive)
CCRF-CEM
  GI50: > 100 µM (inactive)
COLO 205
  GI50: > 100 µM (inactive)
DU-145
  GI50: > 100 µM (inactive)
EKVX
  GI50: > 100 µM (inactive)
HCT-116
  GI50: > 100 µM (inactive)
HCT-15
  GI50: > 100 µM
HL-60
  GI50: > 100 µM (inactive)
HOP-62
  GI50: > 100 µM (inactive)
HOP-92
  GI50: > 100 µM (inactive)
HT-29
  GI50: > 100 µM (inactive)
Hs-578T
  GI50: > 100 µM (inactive)
IGROV-1
  GI50: > 100 µM (inactive)
K562
  GI50: > 100 µM (inactive)
KM12
  GI50: > 100 µM (inactive)
LOX IMVI
  GI50: > 100 µM (inactive)
M14
  GI50: > 100 µM (inactive)
MCF7
  GI50: > 100 µM (inactive)
MDA-MB-231
  GI50: > 100 µM (inactive)
MDA-MB-435
  GI50: > 100 µM (inactive)
MDA-N
  GI50: > 100 µM (inactive)
MOLT-4
  GI50: > 100 µM (inactive)
Malme-3M
  GI50: > 100 µM (inactive)
NCI-H226
  GI50: > 100 µM (inactive)
NCI-H23
  GI50: > 100 µM (inactive)
NCI-H460
  GI50: > 100 µM (inactive)
NCI-H522
  GI50: > 100 µM (inactive)
NCI/ADR-RES
  GI50: > 100 µM (inactive)
OVCAR-3
  GI50: > 100 µM (inactive)
OVCAR-4
  GI50: > 100 µM (inactive)
OVCAR-5
  GI50: > 100 µM (inactive)
OVCAR-8
  GI50: > 100 µM (inactive)
PC-3
  GI50: > 100 µM (inactive)
RPMI-8226
  GI50: > 100 µM (inactive)
RXF 393
  GI50: > 100 µM (inactive)
SF-268
  GI50: > 100 µM (inactive)
SF-295
  GI50: > 100 µM (inactive)
SF-539
  GI50: > 100 µM (inactive)
SK-MEL-28
  GI50: > 100 µM (inactive)
SK-MEL-2
  GI50: > 100 µM (inactive)
SK-MEL-5
  GI50: > 100 µM (inactive)
SK-OV-3
  GI50: > 100 µM (inactive)
SN12C
  GI50: > 100 µM (inactive)
SNB-19
  GI50: > 100 µM (inactive)
SNB-75
  GI50: > 100 µM (inactive)
SR
  GI50: 94.2 µM (inactive)
SW-620
  GI50: > 100 µM (inactive)
T47D
  GI50: > 100 µM (inactive)
TK-10
  GI50: 80.9 µM (inactive)
U-251
  GI50: > 100 µM (inactive)
UACC-257
  GI50: > 100 µM (inactive)
UACC-62
  GI50: > 100 µM (inactive)
UO-31
  GI50: 73.1 µM (inactive)
